Laboratory results published in paper PMC7215935, “GM1 Oligosaccharide Crosses the Human Blood–Brain Barrier In Vitro by a Paracellular Route” (International Journal of Molecular Sciences, 2020).

Key:
hBLECs [1] = test: Fate of OligoGM1 in hBLECs (cell-associated radioactivity); assay type: in vitro ADME, human
Description: The possible internalization of OligoGM1 in hBLECs was determined by measuring the radioactivity associated to the cells. Briefly, at the end of direct transport, apical and basolateral solutions were collected, hBLEC filters were washed with RH buffer, and cells were detached by trypsin and lysed with 1mM Na3VO4, 1 mM PMSF, 2% (v/v) aprotinin, and 1% (v/v) IP in cold PBS. At this point, the lysed cell solution was counted to measure the radioactivity. All the cell lysates were combined with 5 mL of ULTIMA GOLD liquid (PerkinElmer), shaken, and counted for 20 min by liquid scintillation analyzer (TRI-CARB 2100TR, Packard). The resulting dpm radioactivity measures were used to estimate the molecule quantity.

hBLECs [2] = test: Metabolic integrity of OligoGM1 after hBLEC transport (HPTLC autoradiography); assay type: in vitro ADME, human; settings: basolateral compartment, detection limit 15 dpm
Text: Since OligoGM1 is tritium labeled at position 6 of the external galactose, any possible galactosidase activity present on the plasma membrane of hBLECs can result in external galactose removal, leading to loss of radioactivity from the penta-saccharide. Radiolabeled galactose may pass the BBB or may enter into the cells and be recycled for the biosynthesis of new glycans, so that the radioactivity found may correspond to the galactose or to any possible new glycan rather than to the original oligosaccharide.
Thus, to test the integrity of the OligoGM1 molecule after hBLEC crossing, OligoGM1 solution was prepared in RH buffer at a final concentration of 100 μM plus 1 × 10^6 dpm of tritium-labeled OligoGM1. For the apical–basolateral transport experiment, the hBLEC insert’s apical side was filled with 0.5 mL of the drug solution and placed on 1.5 mL RH buffer-filled well of a 12-well plate. After 60 min, the solution of the receiving compartment (about 1.5 mL) was collected and 200 μL were combined with 5 mL of ULTIMA GOLD liquid (PerkinElmer), shaken, and counted for 20 min by a liquid scintillation analyzer (TRI-CARB 2100TR, Packard).
To verify that the counted radioactivity indeed corresponded to [^3H]OligoGM1, 0.5 mL of receiving compartment solution was lyophilized and suspended in 0.5 mL of methanol. […]

hBLECs [3] = test: Toxicity on hBLECs / monolayer integrity by LY permeability in combination with test substance; assay type: cell-based, human
Description: (§1) Prior to the experiments, in order to verify the hBLECs’ monolayer integrity and stability, the permeability parameters were verified as previously reported. Briefly, 1.5 mL Ringer–Hepes solution (RH) (150 mM NaCl, 5.2 mM KCl, 2.2 mM CaCl2, 0.2 mM MgCl26H2O, 6 mM NaHCO3, 5 mM HEPES, pH: 7.4) was added to empty wells of a 12-well plate. Filter insert containing confluent monolayers of hBLECs or not (control) were subsequently placed in the 12-well plate, filled with 0.5 mL RH buffer containing the fluorescent integrity marker LY (50 μM), and then placed on an orbital shaker (150 rpm, Heidolph Titramax 100) at 37 °C in a humidify atmosphere of 95% air/5% CO2. Every 20 min for 1 h, filter inserts were withdrawn from the receiver compartment and placed in the next one. To verify the quantity of LY, at the end of the experiments, aliquots from the donor solution were taken at the end of the experiments and the fluorescence was quantified using a quantification curve of LY as referee. At least three inserts with cells and three without cells were tested in each permeability measurement. The fluorescence was measured using a luminescence spectrometer (LS 50B, Perkin Elmer), using the following excitation/emission wavelength (nm) settings: 432/538. Pe parameters were calculated according to the formulas shown in the Supplementary Information (Equations (7)–(10)). In parallel, as positive control for breakdown of hBLECs, D-mannitol, was used at a concentration of 1.4 M. At this concentration, mannitol induces an osmotic shock, and thus an increase in paracellular permeability.
To evaluate the toxicity of GM1 and OligoGM1, the LY endothelial permeability (Pe) and apparent permeability (Papp) were considered for evaluation of hBLEC monolayer integrity after administration of compounds.
To examine the LY permeability, 1.5 mL of RH buffer was added to empty wells of a 12-well plate, then hBLEC filters were placed in the 12-well plate and filled with 0.5 mL RH buffer containing 50 μΜ LY plus OligoGM1 or GM1 at an appropriate test concentration (from 5 to 300 μΜ). The hBLEC inserts were moved every 20 min to a new RH-filled well up to 60 min. At the end of the incubation period, solutions were collected from apical and basolateral compartments, LY was quantified, and Papp was calculated as reported in the Supplementary Information (Equation (1)) and previously mentioned.

[4] = cited from earlier work
[5] = test system: human brain-like endothelial cells (hBLECs); test: Inverse transport (basolateral to apical, B → A) across hBLECs and efflux ratio; assay type: in vitro ADME
Description: For the inverse transport study (related to basolateral → apical flux, B → A), 1.5 mL of 1 × 10^6 dpm of tritiated [^3H]OligoGM1 plus 50 μM OligoGM1 in RH buffer were added to an empty well of a 12-well plate (Figure S3c). Every 20 min up to 60 min, the hBLEC filter filled with 0.5 mL RH buffer was removed and replaced with a new filter with fresh RH buffer.
The apparent permeability, efflux ratio, and endothelial permeability were calculated to estimate the absorption processes of drugs, to predict implication of active transport in the process of drugs absorption, and to more accurately appreciate the transport of a drug across an endothelial barrier, respectively. Detailed information on the equations used to calculate the permeability parameters are reported in the Supplementary Information. […]
where (∆Q/∆t) (μmol/sec) is the rate of permeation (quantity per second) of a molecule across the cell layer, C0 (μmol/cm3) is the donor compartment concentration at time zero and S (cm2) is the area of […]
In the transwell insert system there are two compartments and, analyzing the absorption of a substance, the apparent permeability index can be obtained for the apical to basolateral transport, Papp A → B, and for the inverse, basolateral to apical transport Papp B → A.
To define Papp (1), the Fick's law could be used, which describes the transport of substances through a semipermeable membrane. Given that the initial concentration of the solute in the donor compartment is much higher than the one in the receiver compartment (equal to 0 at t0), and assuming that the solute equally partitions in the two compartments, for small variation of C0, it is possible to integrate and simplify the Fick’s equation to obtain as follows: […]
where ∆Q/∆t corresponds to the amount of solute that crosses the membrane over time, D is the diffusion coefficient of the substance in water, S is the membrane surface, h its thickness and C0 is the concentration of the solute which approximates the initial concentration C0.
The equation (2) can be rewritten as: […]

[6] = test system: human brain-like endothelial cells (hBLECs); test: Direct transport (apical to basolateral, A → B) across the hBLEC monolayer: Pe and Papp; assay type: in vitro ADME; settings: for endothelial permeability Pe (A → B): after 60 min, hBLEC monolayer
Description: as §1
Transport experiments were carried out by adding tritium-labeled GM1 or OligoGM1 (1 × 10^6 dpm) to cold GM1 or OligoGM1, respectively, at different concentrations, as specified below.
To identify and quantify the GM1 or OligoGM1 molecules in every transport experiment, aliquots from apical A (5 μL) and basolateral B (200 μL) compartments were collected at indicated time points and combined with 5 mL of ULTIMA GOLD liquid (PerkinElmer), shaken, and counted for 20 min by liquid scintillation analyzer (TRI-CARB 2100TR, Packard). Resulting radioactivity measures were used to estimate the quantity of the molecules. Experiments were performed on an agitation plate at 37 °C (150 rpm, Heidolph Titramax 100) in a humidify atmosphere of 95% air/5% CO2. At least three inserts with cells were tested in each transport experiment for each condition.
To examine flux from apical to basolateral compartments (A → B), 1.5 mL RH buffer was added to empty wells of a 12-well plate. Following this, the hBLEC filter was placed in the same 12-well plate and filled with 0.5 mL RH buffer containing 1 × 10^6 dpm of tritiated [^3H]GM1 or [^3H]OligoGM1 plus 50 μM of cold GM1 or OligoGM1 (Figure S3b).
To establish the time dependence of the transport experiments, hBLEC inserts filled with OligoGM1 were transferred into a new receiver well plate filled with fresh RH buffer every 20 min up to 240 min. The hBLECs’ properties, integrity, and stability were maintained up to 240 min in the transport experiments with RH buffer in the upper and basolateral side (see [28] and Figure S4).
To establish the dose dependence in the transport experiments, 1 × 10^6 dpm of tritiated [^3H]OligoGM1 plus 5, 10, 50, 100, and 300 μM OligoGM1 solutions were prepared and employed as described above. The hBLECs inserts were transferred into a new RH-filled receiver well plate every 20 min up to 60 min. […]
To evaluate the possible active transport involvement, the transport of OligoGM1 from apical to basolateral (A → B) compartments was performed at 4 °C, with the aim of inhibiting the active transport mechanism at low temperature. […]

MRPs = test: ABC transporter competition assay (Caco-2 pump out), CMFDA efflux; settings: Caco-2 cells, positive control
Description: Briefly, Caco-2 cells in 96-well plates were washed once with RH buffer and incubated for 120 min with 10 µM R123 or for 15 min with 0.5 µM CMFDA. R123 and CMFD are substrates for the major efflux pumps expressed by BBB and intestine cells, i.e., P-gp/BCRP and MRPs, respectively. After the incubation period, Caco-2 cells were washed twice with RH buffer with or without test compounds (OligoGM1 at 10, 50, and 100 µM). The rate out (Kout) of Caco-2 cells for fluorescent dyes was monitored by fluorescence measurement (λex = 501 nm and λem = 538 nm for R123; λex = 485 nm and λem = 538 nm for CMFDA) using a microplate fluorescent reader (BioTek, H1, Vermont, Winooski). The amount of dye expelled from the cells was measured at 37 °C and every 5 min for one hour for R123 and every 2 min for 30 min for CMFDA. The rate out of the dye from cells was calculated as the slope of the curve of the cumulative amount of dye against the time (Kout = ∆pmol⁄∆t) and compared with the value in the presence of test compounds.

[7] = 1.4 M, osmotic shock, positive control for leakage

Compound: [6-^3H]β-Gal-(1-3)-β-GalNAc-(1-4)-[α-Neu5Ac-(2-3)]-β-Gal-(1-4)-β-Glc-Cer [[^3H]OligoGM1]
- amount found within the cells (internalization) (hBLECs [1]; 50 μM apical, 20, 40, 60, 240 min, cell lysate): no detectable amount
- radioactivity associated with apical and basolateral solutions (hBLECs [1]; 50 μM apical, each time point 20, 40, 60, 240 min): about 99%
- metabolic stability after hBLEC crossing (hBLECs [2]): metabolically stable

Compound: OC[C@@H](O)[C@@H](O)[C@H](O)[C@H](O)CO [D-mannitol]
- rise of LY Papp on co-incubation (hBLECs [3]; [7]): 4 fold
- rise of LY Pe on co-incubation (hBLECs [3]; [7]): 20 fold

Compound: 6′-R-maltosyl-maltotrioside
- hydrodynamic radius (r) [4]: 8.7 Å

Compound: OC[C@H]1O[C@H](OC[C@H]2O[C@H](OC[C@H]3O[C@H](O[C@]4(CO)O[C@H](CO)[C@@H](O)[C@@H]4O)[C@H](O)[C@@H](O)[C@@H]3O)[C@H](O)[C@@H](O)[C@H]2O)[C@H](O)[C@@H](O)[C@H]1O [stachyose]
- hydrodynamic radius (r) [4]: 6.5 Å

Compound: Lucifer yellow [LY, reference compound]
- hydrodynamic radius (r) [4]: 4.9 Å
- Papp B>A ([5]; 50 μM in basolateral compartment, 60 min (Figure 7)): 1.59 ± 0.27 x 10^-5 cm/sec
- Efflux Ratio (E) = Papp B>A / Papp A>B ([5]; 50 μM, 60 min, hBLECs): 1.25
- apparent permeability Papp (A → B) of LY alone ([6]; 50 μM LY, hBLEC integrity check (Figure 2)): 1.25 ± 0.123 ×10^−5 cm/s
- Papp A>B at 4 °C ([6]; 50 μM, 60 min, 4 °C (Figure 6d)): 1.04 ± 0.068 x 10^-5 cm/sec
- Papp A>B at 37 °C ([6]; 50 μM, 60 min, 37 °C, temperature experiment (Figure 6d)): 1.27 ± 0.072 x 10^-5 cm/sec
- endothelial permeability Pe (A → B) ([6]; 50 μM): 0.65 ± 0.041 ×10^−3 cm/min

Compound: CN(C)C(=O)CCSC(SCCC(=O)O)c1cccc(/C=C/c2ccc3ccc(Cl)cc3n2)c1 (centres unmarked) [MK571, reference compound]
- decrease of outgoing rate (Kout) of CMFDA (MRPs): more than 30%

Compound: CCCCCCCCCCCCCC=CC(O)C(COC1OC(CO)C(OC2OC(CO)C(OC3OC(CO)C(O)C(OC4OC(CO)C(O)C(O)C4O)C3NC(C)=O)C(OC3(C(=O)O)CC(O)C(NC(C)=O)C(C(O)C(O)CO)O3)C2O)C(O)C1O)NC(=O)CCCCCCCCCCCCCCCCC (stereo not drawn) [GM1, β-Gal-(1-3)-β-GalNAc-(1-4)-[α-Neu5Ac-(2-3)]-β-Gal-(1-4)-β-Glc-(1-1)-Cer, reference compound]
- effect on LY Pe and Papp (toxicity to hBLECs) (hBLECs [3]; 10, 50, 100 and 300 μM with 50 μM LY, 60 min and over time (20, 40, 60 min)): no variations of LY Pe and Papp were observed
- endothelial permeability Pe (A → B) ([6]; 50 μM): 0.028 ± 0.007 ×10^−3 cm/min
